Series [1] is described as follows: DPPH radical scavenging activity. To be noted: 100 µM compound, methanolic DPPH 0.025 mg/mL, 517 nm. On the procedure:
DPPH (2,2-diphenyl-1-picrylhydrazyl) was used to explore the free radical quenching ability of 3a-o so as to provide a gauge of their antioxidant potential. The experiment was conducted according to a previously reported protocol with slight modifications. Percent free radical scavenging activities (% FRSA) of 3a-o were determined by spectrophotometric analysis at 517 nm using a homogenous mixture of methanolic DPPH (0.025 mg/mL) and a 100 µM solution of the tested compound, with ascorbic acid used as a positive control (Fig. 3).

For the next series, the target named is T1, ALR1 (Bos taurus, UniProt Q3ZCJ2).
T1 construct: The calf’s kidneys were obtained after slaughtering and dissection; from tissue; host or cells: calf kidneys
The series is described as follows: ALR1 enzyme inhibition assay (enzyme extracted from calf kidneys). In kind it is biochemical, bovine. The note with it: bovine kidney ALR1, substrate sodium-D-glucoronate, mean ± SEM of three measurements. The protocol: Compounds 3a-o were tested against ALR2 to evaluate their inhibitory potential against aldose reductase whereas selectivity was determined via performing ALR1 inhibition assay. For the enzyme inhibition assay, ALR2 and ALR1 were extracted from bovine sources (ALR2 from eyes and ALR1 from kidneys). Moreover, inhibitions studies were also carried out on the expressed ALR2 (human AKR1B1) and inhibition data for ALR2- bovine source and expressed enzyme was compared and analyzed. The protocols for enzyme extraction and expression in the bacterial system are included in the section of “Supporting information”. […] For the purpose of comparison and validation of enzyme inhibition data, these compounds were tested against human AKR1B1 (hAKR1B1) expressed in E. coli BL21 (DE3). We found a similar pattern of enzyme inhibition for the synthesized compounds against extracted enzyme (ALR2) as well as expressed enzyme (hAKR1B1).
(§1) For the determination of enzyme activity of ALR1 and ALR2, 100 µL of reaction mixture was composed of 20 µL of buffer (100 mM sodium phosphate, pH 6.2), 30 µL of enzyme extract, 20 µL of substrate (10 mM), 20 µL of cofactor (0.1 mM of NADPH) and 10 µL of test compound (1 mM)[6],[21]. The reaction mixture without cofactor was incubated at 32°C for 10 min, then the enzymatic reaction was initiated with the addition of NADPH and monitored for 5 minutes. Similar protocols were followed for ALR1 and ALR2, however the substrate was different for each enzyme, with sodium-D-glucoronate and DL-glyceraldehyde used as the substrates for the ALR1 and ALR2 assays, respectively. […] In addition, similar protocols were adopted for human AKR1B1 that was expressed in E. coli BL21 (DE3), though the determined protein concentration was 12 µg/mL for the expressed enzyme. Detailed protocols for the preparation of ALR1, ALR2 and expressed human AKR1B1 can be found in the supporting information.
(§2) The newly synthesized N-substitute thiosemicarbazones (3a-o) were dissolved in 100% DMSO and diluted with deionized water, keeping the DMSO concentration equal to 0.1% in the assay.
The calf’s kidneys were obtained after slaughtering and dissection, dissolved in 3 volumes of sodium phosphate buffer (10mM) which is composed of 2.0 mM EDTA, 2.5mM β-mercaptoethanol, 0.25M solution of sucrose at pH 7.25. First, the homogenisation was carried out then centrifugation of the homogenate was performed at 12000 x g at 0-2^◦C for 30 minutes. The precipitates containing insoluble lipids were discarded and the collected supernatant layer was treated with 40% saturation of ammonium sulphate. This liquid mixture was subjected to centrifugation at 11000 x g at 0-2^◦C for 30 minutes. Now, precipitates were again discarded and supernatant was collected and treated with 50% ammonium sulphate and procedure was repeated in the same manner as in previous step. In the last step, the saturation of ammonium sulphate was increased up to 75% and supernatant was subjected to same parameter of centrifugation. At this final step, precipitates were obtained and supernatant layer was discarded. The obtained material of precipitates was composed of ALR1and redissolved in initial buffer that was used during homogenisation. Finally, material was dialyzed overnight with same buffer system. The dialyzed fractions containing ALR1 were stored at -80^◦C for further use[5].

For a further series, the target named is T2, human AKR1B1 (hAKR1B1) (Homo sapiens, UniProt P15121).
T2 construct: made in house; host or cells: E. coli BL21 (DE3)
The series is described as follows: Inhibition of expressed human AKR1B1 (E. coli BL21 (DE3)). It counts as biochemical. The note with it: for IC50: human AKR1B1 expressed in E. coli BL21 (DE3), mean ± SEM of three measurements; for inhibition at 100 µM: human AKR1B1 expressed in E. coli, 100 µM inhibitor, read-out: I (%, 100 µM) (AKR1B1). On the procedure:
For the enzyme inhibition assay, ALR2 and ALR1 were extracted from bovine sources (ALR2 from eyes and ALR1 from kidneys). Moreover, inhibitions studies were also carried out on the expressed ALR2 (human AKR1B1) and inhibition data for ALR2- bovine source and expressed enzyme was compared and analyzed. The protocols for enzyme extraction and expression in the bacterial system are included in the section of “Supporting information”. […] For the purpose of comparison and validation of enzyme inhibition data, these compounds were tested against human AKR1B1 (hAKR1B1) expressed in E. coli BL21 (DE3).
as §1, with “The reaction mixture without cofactor was incubated at 32°C for 10 min, then the enzymatic reaction was initiated with the addition of NADPH and monitored for 5 minutes.” left out
as §2
The expression plasmid for aldose reductase (pDONR223_AKR1B1_WT) was gift from Addgene in stable culture. Streaking of this culture has been carried out on LB Agar plate then incubated overnight, after growth of colonies , inoculation was performed in LB medium then incubated this medium in shaking incubator at 37 °C. After 48 hours turbidity was measured when OD=0.6 then some of bacterial growth was prepared as 50% glycerol stock. Others are subjected to plasmid isolation following method Miniprep. Meanwhile E. Coli BL21 De3 cells were made competent then transformation with extracted plasmid (AKR1B1) had been carried out heat shock method. Transformed cell ( E.Coli BL21 DE3+AKR1B1) were grown in 37 °C in shaking incubator for 48 hr. The selection for transformed cells was carried out with the help of antibiotic (spectinomycin 50µg/ml). […] For the expression of aldose reductase , E.coli BL21DE3 were induced with of IPTG(Isopropyl-d-thiogalactopyranoside)[3]. […] The expressed enzyme was stabilized by addition 10 mM Tris–HCl buffer, 0.5 mM EDTA, 5 mM β-marcaptoethanol at pH 8.0 and 20% (v/v) glycerol. Cells were lysed with lysis buffer and then precipitation with ammonium sulfate up to 80% saturation was done . the expressed enzyme was dialyzed overnight against tris buffer. Protein quantification was performed following Bradford protein assay. Aliqoutes were stored at -80 refrigerator.

Another series addresses T3, ALR2 (Bos taurus, UniProt P16116).
T3 construct: from tissue; host or cells: calf eye lenses
The experiment in a line: ALR2 enzyme inhibition assay (enzyme extracted from calf lenses). It counts as biochemical, bovine. To be noted: for IC50: bovine lens ALR2, substrate DL-glyceraldehyde, mean ± SEM of three measurements; for inhibition at 100 µM: bovine lens ALR2, 100 µM inhibitor, read-out: I (%, 100 µM) (ALR2) (converted). The protocol:
Compounds 3a-o were tested against ALR2 to evaluate their inhibitory potential against aldose reductase whereas selectivity was determined via performing ALR1 inhibition assay. For the enzyme inhibition assay, ALR2 and ALR1 were extracted from bovine sources (ALR2 from eyes and ALR1 from kidneys). Moreover, inhibitions studies were also carried out on the expressed ALR2 (human AKR1B1) and inhibition data for ALR2- bovine source and expressed enzyme was compared and analyzed. The protocols for enzyme extraction and expression in the bacterial system are included in the section of “Supporting information”. […] For the purpose of comparison and validation of enzyme inhibition data, these compounds were tested against human AKR1B1 (hAKR1B1) expressed in E. coli BL21 (DE3).
as §1, §2
The extraction of ALR2 was carried out from calf lenses via adopting method described in
in (Hayman and Kinoshita 1965) with little modification. The lenses were obtained from slaughterhouse immediately after calf’s slaughtering and stored at -20^◦C until further use. These lense (150-170g) were subjected to homogenization with about three times volume of cold distilled water and then centrifugation was carried out for the homogenate at 10,000 x g for 14 minutes for removal of insoluble lipids particles. Precipitates were discarded and supernatant layer was subjected to 40% saturation of ammonium sulphate and again centrifugation was performed with same parameters for 14 minutes and again precipitates were discarded. […] In the last step, the supernatant was subjected to 75% of saturation with ammonium sulphate to obtain ALR2. Now, the precipitates were collected instead supernatant because precipitated protein was the expected desired ALR2. The precipitated enzyme (ALR2) was redissolved in 50mM solution of sodium chloride and dialyzed for 24 hours against 50mM solution (3.5L) of NaCl. The volume was recorded before and after dialysis, then dialyzed material was treated with liquid nitrogen. The extracted ALR2 was stored in 1mL Eppendorf tube in deep freezer at -80 ^◦C till further enzymatic studies.

As usually defined, the IC50 is the midpoint of a concentration-inhibition curve. Lower therefore signals inhibition by little substance. Usually melting point stands for the temperature, or range, at which the solid turns liquid.

T1 sequence (Q3ZCJ2 whole entry): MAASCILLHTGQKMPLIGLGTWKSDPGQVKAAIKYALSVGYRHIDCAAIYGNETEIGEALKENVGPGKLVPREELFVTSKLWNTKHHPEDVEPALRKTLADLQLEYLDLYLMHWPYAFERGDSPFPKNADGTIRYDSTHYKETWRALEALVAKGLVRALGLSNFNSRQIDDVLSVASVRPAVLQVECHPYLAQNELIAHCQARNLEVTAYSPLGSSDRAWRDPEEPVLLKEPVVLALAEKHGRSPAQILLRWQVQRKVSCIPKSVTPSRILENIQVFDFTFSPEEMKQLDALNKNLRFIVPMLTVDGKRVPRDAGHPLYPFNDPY

As for `O=C1O[C@H]([C@@H](O)CO)C(O)=C1O` [Ascorbic acid, reference compound], in series [1], the “% FRSA (percent free radical scavenging activity)” value stood at 89.88%.

As for `CC(C)(C)c1cc(C=NNC(=S)Nc2ccccc2)c(O)c(C(C)(C)C)c1` [Compound 3a, 2-(3,5-di-tert-butyl-2-hydroxybenzylidene)-N-phenylhydrazinecarbothioamide], the melting point was in the range of 178 to 180 °C. In addition, at ALR1, the half-maximal inhibitory concentration (IC50) came out at 2830 ± 3.4 nM. Also, the “% FRSA (percent free radical scavenging activity)” value in series [1] is given as 79.41%. For the same compound, the midpoint of inhibition at human AKR1B1 (hAKR1B1), the IC50, lay at 3890 ± 3.4 nM. Also, the IC50 against ALR2 is 2990 ± 2.1 nM.

Turning to `Cc1ccccc1NC(=S)NN=Cc1cc(C(C)(C)C)cc(C(C)(C)C)c1O` [Compound 3d, 2-(3,5-di-tert-butyl-2-hydroxybenzylidene)-N-(o-tolyl)hydrazinecarbothioamide], the melting point was in the range of 182 to 184 °C. For the same compound, the “% FRSA (percent free radical scavenging activity)” value in series [1] was 84.58%. The inhibition at 100 µM on human AKR1B1 (hAKR1B1) was found to be 3.56%.

Compound `CC(C)(C)c1cc(C=NNC(=S)NCc2ccccc2)c(O)c(C(C)(C)C)c1` [Compound 3e, N-benzyl-2-(3,5-di-tert-butyl-2-hydroxybenzylidene)hydrazinecarbothioamide] gave a melting point of 190 to 192 °C. The “% FRSA (percent free radical scavenging activity)” value in series [1] was determined as 83.20%. Moreover, the inhibition at 100 µM at human AKR1B1 (hAKR1B1) turned out to be 12.3%.

With `CC(C)(C)c1cc(C=NNC(=S)Nc2ccc(F)cc2)c(O)c(C(C)(C)C)c1` [Compound 3g, 2-(3,5-di-tert-butyl-2-hydroxybenzylidene)-N-(4-fluorophenyl)hydrazine carbothioamide], the melting point fell in the range of 176 to 178 °C. In addition, in series [1], the “% FRSA (percent free radical scavenging activity)” value is on record as 85.89%. This compound also returned an IC50 on human AKR1B1 (hAKR1B1) of 3950 ± 3.8 nM. This compound also displayed an IC50 on ALR2 of 2380 ± 2.8 nM.

Compound `CC(C)(C)c1cc(C=NNC(=S)NC2CCCCC2)c(O)c(C(C)(C)C)c1` [Compound 3h, N-cyclohexyl-2-(3,5-di-tert-butyl-2-hydroxybenzylidene)hydrazinecarbothioamide] gave a melting point of 168 to 170 °C. In series [1], the “% FRSA (percent free radical scavenging activity)” value came to 83.54%. Further, on human AKR1B1 (hAKR1B1), the inhibition at 100 µM was 38%. Further, on ALR2, the inhibition at 100 µM is not above 39.1%.

`CC(C)(C)c1cc(C=NNC(=S)Nc2ccc(Br)cc2)c(O)c(C(C)(C)C)c1` [Compound 3i, N-(4-bromophenyl)-2-(3,5-di-tert-butyl-2-hydroxybenzylidene)hydrazine carbothioamide] returned a melting point of 184 to 186 °C. Further, the “% FRSA (percent free radical scavenging activity)” value in series [1] is 81.80%. Besides, the inhibition at 100 µM on human AKR1B1 (hAKR1B1) came out at 22.3%. The inhibition at 100 µM on ALR2 is not above 39.1%.

On to `CC(C)(C)c1cc(C=NNC(=S)Nc2ccc(Cl)cc2)c(O)c(C(C)(C)C)c1` [Compound 3l, N-(4-chlorophenyl)-2-(3,5-di-tert-butyl-2-hydroxybenzylidene)hydrazine carbothioamide], for which the melting point is 188 to 190 °C. Moreover, the “% FRSA (percent free radical scavenging activity)” value in series [1] turned out to be 61.55%. Besides, half-maximal inhibition at human AKR1B1 (hAKR1B1) (IC50) required 1650 ± 4 nM. Also, at ALR2, the inhibition at 100 µM is 81.5% and the IC50 turned out to be 1460 ± 5 nM.

The compound `CC(C)c1ccc(NC(=S)NN=Cc2cc(C(C)(C)C)cc(C(C)(C)C)c2O)cc1` [Compound 3n, 2-(3,5-di-tert-butyl-2-hydroxybenzylidene)-N-(4-isopropylphenyl)hydrazine carbothioamide] registered a melting point of 189 to 191 °C. Moreover, in series [1], the “% FRSA (percent free radical scavenging activity)” value is listed as 7.91%. Further, the inhibition at 100 µM on human AKR1B1 (hAKR1B1) is 22.6%. Also, the inhibition at 100 µM on ALR2 is not above 39.1%.

As to `CCCC(CCC)C(=O)O` [Valproic acid, reference compound], on ALR1, the IC50 amounted to 49310 ± 5 nM.

(Values after PMC8986850, “Development and exploration of novel substituted thiosemicarbazones as inhibitors of aldose reductase via in vitro analysis and computational study” (Scientific Reports, 2022).)
